Reference: article PMC2649998 (Journal of pharmaceutical sciences, 2009)

Columns and labels:
dogs = details: in dogs; cited from earlier work
[1] = assay type: physicochemical
[2] = assay type: physicochemical; details: 0.3 mM PEO-b-PDLLA, 10% w/w drug, dialysis in ddH2O, 37 °C, pH 7.4
[3] = test system: MCF-7 human breast cancer cells; assay: in vitro cytotoxicity, resazurin dye, 72 h; assay type: cell-based; details: MCF7, 72 h, read-out: MCF-7 IC50
[4] = test system: PC-3 human prostate cells; assay: in vitro cytotoxicity, resazurin dye, 72 h; assay type: cell-based; details: Prostate cell, read-out: PC-3 IC50
[5] = cited from earlier work
MCF-7 = details: read-out: IC50 for MCF-7; reported by the National Cancer Institute; cited from earlier work
PC-3 = details: read-out: IC50 for PC-3; reported by the National Cancer Institute; cited from earlier work

SMILES	maximum tolerated dose (dogs)	17-AAG : PEO-b-PDLLA ([1]; 0.3 mM PEO-b-PDLLA micelle solution)	Loading efficiency ([1]; 17-AAG loaded 1.4% divided by loading attempted 10% w/w)	increase in solubility over 17-AAG alone ([1]; in PEO-b-PDLLA (12:6 kDa) micelles versus ca. 10 μg/mL)	17-AAG loaded ([1]; weight 17-AAG solubilized versus total weight of carrier (17-AAG and PEO-b-PDLLA), 0.3 mM PEO-b-PDLLA)	release half-life [2]	IC50 [3]	IC50 [4]	aqueous solubility [5]	IC50 (MCF-7)	IC50 (PC-3)
CO[C@H]1/C=C\C=C(/C)C(=O)NC2=CC(=O)C(NCCN(C)C)=C(C[C@@H](C)C[C@H](OC)[C@H](O)[C@@H](C)/C=C(\C)[C@@H]1OC(N)=O)C2=O [17-DMAG, 17-dimethylaminoethylamino-17-demethoxygeldanamycin]	8 mg/m^2/day	–	–	–	–	–	–	–	–	–	–
C=CCNC1=C2C[C@@H](C)C[C@H](OC)[C@H](O)[C@@H](C)/C=C(\C)[C@H](OC(N)=O)[C@@H](OC)/C=C\C=C(/C)C(=O)NC(=CC1=O)C2=O [17-AAG, 17-allylamino-17-demethoxygeldanamycin]	100–200 mg/m^2/day	0.47 ± 0.068 mol:mol	14 ± 2.0%	ca. 150 fold	0.014 ± 0.0020 mg/mg	similar	0.022 ± 0.014 µM	0.074 ± 0.014 µM	ca. 0.01 mg/mL	0.0126 µM	0.0501 µM
